# Laboratory results taken from PubChem BioAssay AID1208 (EPA DSSTox, 2008).
# Active and inactive are the calls of the source.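 Rule for the calls: active = at least one rat sex group has a carcinogenic potency value and tumor site recorded; inconclusive = only rat studies were judged inadequate by the national testing program; inactive = no potency or tumor site, with negative rat experiments.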
# Test system: rat chronic carcinogenicity bioassay, TD50
# Assay: DSSTox (CPDBAS) Carcinogenic Potency Database Summary Rat Bioassay Results
# Conditions: for outcome: TD50_Rat_Note: no positive results; for Potency: hits give low values
# In short: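 The activity score maps log10(1/TD50_Rat_mmol) linearly onto 1–100; actives without a computed TD50, such as mixtures, receive 50. Source data are chronic rat carcinogenicity tests, using the most positive experiment for each sex.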
# [1] = TargetSites_Rat_Female: no positive results
# [2] = TD50_Rat_Note: TD50 is harmonic mean of more than one positive test, TargetSites_Rat_Female: stomach
Structure (SMILES),outcome [1],further results
CN1[C@@H]2CC(OC(=O)[C@@H](CO)c3ccccc3)C[C@H]1[C@@H]1O[C@@H]12 (some centres not stated),inactive; no positive results,
CN(N=O)c1ccccn1,,Potency (TargetSites_Rat_Female: esophagus): 0.214 mg/kg/day
O=C(O)COc1ccc(Cl)cc1Cl,inactive; no positive results,
[O-][Br+2]([O-])O,,"Potency (TD50_Rat_Note: TD50 is harmonic mean of more than one positive test, TargetSites_Rat_Female: kidney): 9.82 mg/kg/day"
Cc1[nH]cnc1CSCCN=C(NC#N)N(C)N=O,inactive; no positive results,
NNc1nc(-c2ccc(N)cc2)cs1,,"Potency (TargetSites_Rat_Female: hematopoietic system, mammary gland): 1.03 mg/kg/day"
CCOC(=O)CC(SP(=S)(OC)OC)C(=O)OCC (configuration not stated),inactive; no positive results,
CC(=O)OC[C@H]1O[C@H](O[C@]2(COC(C)=O)O[C@H](COC(=O)C(C)C)[C@@H](OC(=O)C(C)C)[C@@H]2OC(=O)C(C)C)[C@H](OC(=O)C(C)C)[C@@H](OC(=O)C(C)C)[C@@H]1OC(=O)C(C)C,inactive; no positive results,
ClC1C(Cl)C(Cl)C(Cl)C(Cl)C1Cl (configuration not stated),inactive; no positive results,Potency: 11.2 mg/kg/day
CC(C)C[C@H]1C(=O)N2CCC[C@H]2[C@]2(O)O[C@](NC(=O)[C@@H]3C=C4c5cccc6[nH]c(Br)c(c56)C[C@H]4N(C)C3)(C(C)C)C(=O)N12,,Potency (TargetSites_Rat_Female: uterus): 33.7 mg/kg/day
CN(C)C(=S)SSC(=S)N(C)C,inactive; no positive results,
C/C=C/c1ccc(OC)cc1,inactive; no positive results,
CCCCCCOc1cc(C)c(O)c(C)c1C,inactive,
CC1(C)COC1=O,,Potency [2]: 211 mg/kg/day
Nc1ccc(NCCO)c([N+](=O)[O-])c1,inactive; no positive results,
CC(C)CN(N=O)C(=N)N[N+](=O)[O-],,outcome: inactive; no positive results
Cc1c(-c2cnccn2)ssc1=S,inactive; no positive results,
Cc1ccc2c(c1)C(N1CCN(C)CC1)=Nc1ccccc1S2,inactive; no positive results,
CCN(C)N=O,,Potency [1]: 0.0503 mg/kg/day
NC(=O)N(CCO)N=O,,"Potency (TD50_Rat_Note: TD50 is harmonic mean of more than one positive test, greater than ten-fold variation among TD50 values for positive res, TargetSites_Rat_Female: hematopoietic system, mammary gland): 0.244 mg/kg/day"
CCCCCCCCCCCCCCCC(=O)OC/C=C(C)/C=C/C=C(C)/C=C/C1=C(C)CCCC1(C)C,,outcome: inactive; no positive results
Cn1nc(CO)nc1NCCCOc1cccc(CN2CCCCC2)c1,,Potency [2]: 479 mg/kg/day
OCC(CO)N[C@H]1C[C@](O)(CO)[C@@H](O)[C@H](O)[C@H]1O,inactive; no positive results,

Structure (SMILES),outcome [1],further results
CN=[N+](C)[O-],,Potency (TD50_Rat_Note: TD50 is harmonic mean of more than one positive test): 0.0466 mg/kg/day
O=NN1CCC[C@H]1C(=O)O,inactive; no positive results,
CCOP(=S)(OCC)Oc1ccc([N+](=O)[O-])cc1,inactive; no positive results,
Clc1cccc(-c2ccc(Cl)c(Cl)c2Cl)c1Cl,,"Potency (TD50_Rat_Note: TD50 is harmonic mean of more than one positive test, TD50_Rat_mmol was not calculated for this mixture, but Activiity S, TargetSites_Rat_Female: liver): 4.8 mg/kg/day"
Cc1cc(O)c2c(c1)C(=O)c1cc(O)cc(O)c1C2=O,inactive; no positive results,
CCSCC[C@H](N)C(=O)O,,"Potency (TD50_Rat_Note: TD50 value is overestimated as upper 99% confidence limit from study with 100% tumor incidence but no lifetable, harmoni): 4.97 mg/kg/day"
Cn1cnc2nc(N)[nH]c(=O)c21,,outcome (TargetSites_Rat_BothSexes: no positive results): inactive
C=CF,,"Potency (TD50_Rat_Note: TD50 is harmonic mean of more than one positive test, TargetSites_Rat_Female: ear Zymbals gland, liver, vascular system): 20 mg/kg/day"
[N-]=[N+]=[N-],inactive; no positive results,
CN(C)N=Nc1ccccc1,,Potency (TargetSites_Rat_BothSexes: nervous system): 2.31 mg/kg/day
Nc1cc(Cl)c(N)c(Cl)c1,inactive; no positive results,
CC(=O)OC(OC(C)=O)c1ccc([N+](=O)[O-])o1,inactive,
CCOC(=O)/C=C\C(=O)OCC,,outcome: inactive; no positive results
COc1c(Cl)c(Cl)c([N+](=O)[O-])c(Cl)c1Cl,inactive; no positive results,
Clc1ccc(Cl)cc1,,Potency [1]: 644 mg/kg/day
N/C(=N\O)c1ccc([N+](=O)[O-])o1,inactive,
CC(=O)O[C@@H]1[C@@H](O)C2OC3C=C(C)C(=O)C(O)[C@@]3(CO)[C@]1(C)[C@]21CO1 (some centres not stated),,outcome: inactive; no positive results
CC1=C(C(=O)OC(C)C)C(c2cccc([N+](=O)[O-])c2)C(C(=O)OC2CN(C(c3ccccc3)c3ccccc3)C2)=C(N)N1 (configuration not stated),inactive; no positive results,
Cc1ccccc1N,,"Potency (TD50_Rat_Note: TD50 is harmonic mean of more than one positive test, TargetSites_Rat_Female: bone, mammary gland, urinary bladder, vascular system): 43.6 mg/kg/day"
Cc1cccc2cccnc12,inactive; no positive results,
CCOc1ccc(NC(C)=O)cc1,,"Potency (TD50_Rat_Note: TD50 is harmonic mean of more than one positive test, TargetSites_Rat_Female: ear Zymbals gland, mammary gland, nasal cavity, urinary bladder): 1250 mg/kg/day"
CN(C)C(=O)Nc1ccc(Cl)cc1,,Potency [1]: 131 mg/kg/day
CCN(CC)CCOc1ccc(C(O)(Cc2ccc(OC)cc2)c2ccccc2)cc1 (configuration not stated),inactive,
